Measurements reported in patent publication US10730851B2, “Polymorph of triaryldimethylpiperazine dihydrochloride and preparation method and application thereof” (priority 2016, dated 2020).
Structures can show the parent of a compound that is named as a salt. Where two headings read alike, the source gives them in different places.

How the values were obtained:
[1] = Relative bioavailability test; format: in vivo, SPF-grade SD rats; conditions: rat, in vivo, po
Description: HPLC-MS/MS method is used to detect the blood drug concentration of target drugs in SPF-grade SD rats, and the relative bioavailability of 0.5% CMC-Na suspension of a free base and 0.5% CMC-Na solution of a polymorph form P are calculated and compared.
60.46 mg of a free base is accurately weighed and placed into a 15 mL centrifuge tube, 12 mL of 0.5% CMC-Na solution is measured and added into the centrifuge tube with a measuring cylinder, vortexed for 5 min, and ultrasonically dispersed for 15 min to obtain 0.5% CMC-Na suspension of free base with a concentration of 5.04 mg/ml, which is currently formulated when using and vibrated at any time during administration.
60.05 mg of a polymorph form P is accurately weighed and placed into a 15 mL centrifuge tube, 12 mL of 0.5% CMC-Na solution is measured and added into the centrifuge tube with a measuring cylinder, vortexed for 5 min, and ultrasonically dispersed for 15 min to obtain 0.5% CMC-Na solution of 5.00 mg/mL polymorph form P, which is currently formulated when using.
Twelve SPF-grade SD rats are selected and randomly divided into a free base group and a polymorph form P group with 6 rats in each group (both male and female). Animals are fasted for 12 h but have free access to water. Weighing is performed and, the administration volume of each rat is calculated according to the animal weight, so that the administration dose is 20 mg/kg·bw. During administration, the drugs are each administrated by gavage, and 0.5% CMC-Na suspension/solution of the above two target drugs are extracted by 2 mL syringe respectively. The gavage needle is inserted into the stomach from the corner of the rat's mouth and pushed the solution thereto.
Blood is collected from the fundus venous plexus of rats at 0.2 mL before (0 h) and 0.5, 1, 2, 4, 6, 8, 12 and 24 h after administration, anticoagulated with 300 IU/mL heparin (1:20) and centrifuged (3000 r/min) for 15 min. After plasma separation, the blood drug concentration of the target drug is determined by HPLC-MS/MS.
Referring to the above-mentioned bioavailability test of the polymorph form P, the bioavailability tests of polymorph forms F, O, B and J are conducted respectively. Different from the bioavailability test of the polymorph form P, rats are given 0.5% CMC-Na solution of the polymorph form F, O, B or J by gavage respectively. Other operations are the same as the above bioavailability test.

[2] = Dynamic solubility test in water, SGF, FeSSIF, FaSSIF; format: physicochemical; conditions: for pH in clear solution: dihydrochloride
Description: The dynamic solubility of a free base, polymorph forms B, P, F, J and O in water or a biological medium such as Stimulated Gastric Fluid (SGF), Fed State Simulated Intestinal Fluid (FeSSIF) or Fasted State Simulated Intestinal Fluid (FaSSIF) is determined.
0.2 g sodium chloride and 0.1 g Triton X-100 is weighed and placed into a 100 mL volumetric flask. Purified water is added to dissolve. A stir is performed until the solid is completely dissolved. About 135 μL concentrated hydrochloric acid solution (37%, […]) is added, then the pH is adjusted to 1.8 with […] hydrochloric acid or 1 mmoL/L sodium hydroxide. Finally, the volume is fixed with purified water to obtain Stimulated Gastric Fluid (SGF) for later use.
Each of 0.41 mL glacial acetic acid, 0.20 g sodium hydroxide and 0.59 g sodium chloride is weighed and placed to a 50 mL volumetric flask. About 48 mL purified water is added to dissolve, the pH is adjusted to 5.0 with 1 mmoL/L hydrochloric acid or 1 mmoL/L sodium hydroxide, and the volume is fixed with purified water. Then 0.56 g of Simulated Intestinal Fluid powder (SIF powder for short, which is composed of […] with a molar ratio of 4:1) is added, stirred and ultrasonically dissolved to obtain Fed State Simulated Intestinal Fluid (FeSSIF) for later use.
Each of 0.17 g of anhydrous sodium dihydrogen phosphate (NaH2PO4), 0.021 g of sodium hydroxide and 0.31 g of sodium chloride is weighed and placed into a 50 mL volumetric flask. About 48 mL of purified water is added to dissolve, the pH is adjusted to 6.5 with 1 mmoL/L hydrochloric acid or 1 mmoL/L sodium hydroxide, and the volume is fixed with purified water. 0.11 g of SIF powder is added, stirred and ultrasonically dissolved to obtain Fasted State Simulated Intestinal Fluid (FaSSIF) for later use.
Each 30 mg of the free base, and polymorph forms B, P, F, J and O are weighed. 3 mL of purified water, Stimulated Gastric Fluid (SGF), Fed State Simulated Intestinal Fluid (FeSSIF) or Fasted State Simulated Intestinal Fluid (FaSSIF)) is added and oscillated at room temperature. 0.6 mL of suspension is taken each time at a set time point, filtered and separated with a 0.45 μm nylon filter membrane, then XRPD characterization is performed on the solid sample, and the concentration in the clear solution is measured by HPLC.

Row | SMILES | bioavailability compared with free base [1] | solubility compared with the free base [2] | pH in clear solution ([2]; FaSSIF, Time 1) | pH in clear solution ([2]; FaSSIF, Time 2) | pH in clear solution ([2]; FaSSIF, Time 4) | pH in clear solution ([2]; FaSSIF, Time 24) | pH in clear solution ([2]; FeSSIF, Time 1) | pH in clear solution ([2]; FeSSIF, Time 2) | pH in clear solution ([2]; FeSSIF, Time 4) | pH in clear solution ([2]; FeSSIF, Time 24) | pH in clear solution ([2]; SGF, Time 1) | pH in clear solution ([2]; SGF, Time 2) | pH in clear solution ([2]; SGF, Time 4) | pH in clear solution ([2]; SGF, Time 24) | pH in clear solution ([2]; Water, Time 1) | pH in clear solution ([2]; Water, Time 2) | pH in clear solution ([2]; Water, Time 4) | pH in clear solution ([2]; Water, Time 24) | Crystal form of insoluble solid sample ([2]; pH 1.8) | solubility compared with the free base ([2]; pH 1.8) | other results
1 | CC1CCN(C(=O)c2ccc([C@H](c3cccc(O)c3)N3C[C@@H](C)N(Cc4cccc(F)c4)C[C@@H]3C)cc2)CC1 [Polymorph form F, (4-((R)-((2S,5R)-4-(3-fluorobenzyl)-(2,5-dimethylpiperazine-1-yl)(3-hydroxyphenyl)methyl)phenyl)(4-methylpiperidine-1-yl)methanone dihydrochloride] | better bioavailability than free base | significantly improved | 3.5 | 4.6 | 4.2 | 4.5 | 4.8 | 4.9 | 4.9 | 4.9 | 1.6 | 1.6 | 1.6 | 1.4 | 1.8 | 1.9 | 1.8 | 1.5 | invariability | close to or slightly improved | Crystal form of insoluble solid sample ([2]; pH 5): invariability; Crystal form of insoluble solid sample ([2]; pH 6.5): invariability
2 | CC1CCN(C(=O)c2ccc([C@H](c3cccc(O)c3)N3C[C@@H](C)N(Cc4cccc(F)c4)C[C@@H]3C)cc2)CC1 [Polymorph form J, (4-((R)-((2S,5R)-4-(3-fluorobenzyl)-(2,5-dimethylpiperazine-1-yl)(3-hydroxyphenyl)methyl)phenyl)(4-methylpiperidine-1-yl)methanone dihydrochloride] | better bioavailability than free base | significantly improved | 2.8 | 3.0 | 2.8 | 2.6 | 4.8 | 5.0 | 4.9 | 4.7 | 1.7 | 1.5 | 1.5 | 1.6 | 1.8 | 1.7 | 1.7 | 1.4 | – | close to or slightly improved | Crystal form of insoluble solid sample [2]: amorphism
3 | CC1CCN(C(=O)c2ccc([C@H](c3cccc(O)c3)N3C[C@@H](C)N(Cc4cccc(F)c4)C[C@@H]3C)cc2)CC1 [Polymorph form O, (4-((R)-((2S,5R)-4-(3-fluorobenzyl)-(2,5-dimethylpiperazine-1-yl)(3-hydroxyphenyl)methyl)phenyl)(4-methylpiperidine-1-yl)methanone dihydrochloride] | better bioavailability than free base | significantly improved | 2.2 | 2.0 | 2.4 | 2.2 | 5.0 | 4.8 | 5.0 | 5.2 | 1.5 | 1.6 | 1.6 | 1.7 | 1.9 | 1.8 | 1.9 | 1.4 | – | close to or slightly improved | Crystal form of insoluble solid sample [2]: invariability; Solubility [2]: 6200 µg/mL
4 | CC1CCN(C(=O)c2ccc([C@H](c3cccc(O)c3)N3C[C@@H](C)N(Cc4cccc(F)c4)C[C@@H]3C)cc2)CC1 [Polymorph form P, (4-((R)-((2S,5R)-4-(3-fluorobenzyl)-(2,5-dimethylpiperazine-1-yl)(3-hydroxyphenyl)methyl)phenyl)(4-methylpiperidine-1-yl)methanone dihydrochloride] | – | significantly improved | 3.0 | 2.7 | 2.2 | 2.6 | 5.0 | 4.9 | 5.0 | 4.6 | 1.6 | 1.7 | 1.6 | 1.5 | 1.9 | 1.9 | 1.9 | 1.6 | invariability | close to or slightly improved | AUC(0-t) ([1]; both sexes, SD, 20 mg/kg): 584 ng·h/mL; Cmax ([1]; both sexes, SD, 20 mg/kg): 98.1 ± 25.2 ng/mL; Tmax ([1]; both sexes, SD, 20 mg/kg): 1.3 ± 0.5 h; bioavailability ([1]; both sexes, SD, 20 mg/kg): 202%; t1/2z ([1]; both, SD, 20 mg/kg): 2.5 ± 0.8 h; Solubility ([2]; pH 1.8, simulated gastric fluid, thermodynamic from solid, Solubility): 3400 µg/mL; Crystal form of insoluble solid sample ([2]; pH 5): invariability; Solubility ([2]; pH 5, fessif, thermodynamic from solid, Solubility): 430 µg/mL; Crystal form of insoluble solid sample ([2]; pH 6.5): invariability
5 | CC1CCN(C(=O)c2ccc([C@H](c3cccc(O)c3)N3C[C@@H](C)N(Cc4cccc(F)c4)C[C@@H]3C)cc2)CC1 [Polymorph form B, (4-((R)-((2S,5R)-4-(3-fluorobenzyl)-(2,5-dimethylpiperazine-1-yl)(3-hydroxyphenyl)methyl)phenyl)(4-methylpiperidine-1-yl)methanone dihydrochloride] | better bioavailability than free base | significantly improved | 2.5 | 2.6 | 2.5 | 2.3 | 4.8 | 4.8 | 4.8 | 4.6 | 1.5 | 1.5 | 1.5 | 1.5 | 1.8 | 1.8 | 1.8 | 1.7 | – | close to or slightly improved | –
